Test results from patent US20080132454A1, “Antihypertensive Peptides” (priority 2004, published 2008).
Residues, ends and D or L forms follow the SMILES beside them. No end group written: not given here.

Tested on: not listed separately
Experiment: Bioavailability: peptide amount in plasma after oral administration to mice
Type: in vivo
Settings: mouse, 500 ug, Balb/C mice, 500 μg each orally, two hours after administration, HPLC-MS
Description: Peptides SEQ ID NO: 1, SEQ ID NO: 2 and SEQ ID NO: 3 (purity of >95% in weight, 500 μg each) were orally administered to mice (Balb/C, 3 months of age). After 2 hours, mice were sacrificed and a blood sample collected. After centrifugation of the blood sample (5 min, 3000 g) plasma was collected, dried and resuspended in ethyl acetate. The samples were then analyzed by HPLC-MS, and the amount of the peptides of this invention present in the plasma samples calculated using standard curves. Two hours after their oral administration, all three peptides were found in the plasma samples in the following amounts: SEQ ID NO: 1: 7.5 μg/ml, SEQ ID NO: 2: 1.2 μg/ml, and SEQ ID NO: 3: 0.9 μg/ml.
CC(C)C[C@H](NC(=O)[C@@H](N)CO)C(=O)N1CCC[C@H]1C(=O)N[C@@H](CCC(=O)O)C(=O)O [SEQ ID NO: 2] (H-SLPE-OH; N-terminus and C-terminus assumed) gave a level at 2 h of 1200 ng/mL.
In the case of NCCCC[C@H](NC(=O)[C@@H]1CCCN1C(=O)[C@H](CCC(=O)O)NC(=O)[C@@H](N)CO)C(=O)O [SEQ ID NO: 3] (H-SEPK-OH; N-terminus and C-terminus assumed), the level at 2 h is reported as 900 ng/mL.
For YGPIPN [SEQ ID NO: 1], the level at 2 h was 7500 ng/mL.

Target: T1, angiotensin converting enzyme (ACE) (Oryctolagus cuniculus, UniProt P12822)
T1 construct: purchased Sigma
T1 sequence (P12822 34-1310): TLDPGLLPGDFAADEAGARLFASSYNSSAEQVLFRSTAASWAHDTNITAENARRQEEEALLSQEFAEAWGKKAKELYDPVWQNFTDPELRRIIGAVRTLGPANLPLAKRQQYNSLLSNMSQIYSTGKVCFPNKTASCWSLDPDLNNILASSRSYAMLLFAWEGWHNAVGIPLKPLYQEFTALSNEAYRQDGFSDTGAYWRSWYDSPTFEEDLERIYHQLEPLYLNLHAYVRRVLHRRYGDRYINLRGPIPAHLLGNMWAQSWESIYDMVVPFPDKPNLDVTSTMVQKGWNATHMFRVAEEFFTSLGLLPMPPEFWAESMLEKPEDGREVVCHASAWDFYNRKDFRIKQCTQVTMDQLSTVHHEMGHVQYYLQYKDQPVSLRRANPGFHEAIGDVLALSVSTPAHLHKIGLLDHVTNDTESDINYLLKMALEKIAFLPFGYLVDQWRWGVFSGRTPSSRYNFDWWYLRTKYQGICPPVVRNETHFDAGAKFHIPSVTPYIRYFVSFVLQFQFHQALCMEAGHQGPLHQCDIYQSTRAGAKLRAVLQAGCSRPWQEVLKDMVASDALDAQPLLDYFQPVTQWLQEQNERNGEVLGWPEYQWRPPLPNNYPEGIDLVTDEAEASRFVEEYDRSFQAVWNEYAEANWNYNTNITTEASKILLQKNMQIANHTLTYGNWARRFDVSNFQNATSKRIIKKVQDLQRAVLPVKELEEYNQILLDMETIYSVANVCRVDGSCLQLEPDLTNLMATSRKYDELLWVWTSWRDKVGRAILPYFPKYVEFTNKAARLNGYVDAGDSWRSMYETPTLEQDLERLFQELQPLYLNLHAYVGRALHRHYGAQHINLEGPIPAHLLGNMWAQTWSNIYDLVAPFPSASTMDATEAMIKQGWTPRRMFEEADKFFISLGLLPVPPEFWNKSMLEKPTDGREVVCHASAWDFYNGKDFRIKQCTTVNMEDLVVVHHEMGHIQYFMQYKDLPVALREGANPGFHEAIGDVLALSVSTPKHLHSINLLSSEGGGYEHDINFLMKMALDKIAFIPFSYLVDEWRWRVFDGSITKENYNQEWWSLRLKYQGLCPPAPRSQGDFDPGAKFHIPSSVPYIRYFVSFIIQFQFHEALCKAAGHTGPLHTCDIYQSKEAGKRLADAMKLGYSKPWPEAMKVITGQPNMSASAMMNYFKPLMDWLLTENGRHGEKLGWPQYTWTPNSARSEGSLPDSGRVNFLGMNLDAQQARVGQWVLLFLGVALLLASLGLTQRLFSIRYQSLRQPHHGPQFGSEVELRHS
Experiment: ACE assay with purified ACE enzyme (Inhibition of Angiotensin Converting Enzyme)
Type: biochemical
Settings: purified ACE enzyme (Sigma); judged from IC50 values
Description: In order to determine IC50 values for the peptides included in this invention, pure peptides (purity of >95% in weight) were prepared by custom solid-phase synthesis on a 10 μmol scale and subsequently purified by HPLC (synthesis and purification performed by Eurosequence, the Netherlands). Purified ACE enzyme (Sigma) was used for the ACE assay (Wu et al. 2002 J. Chromatography 950, 125-130). […] Finally, the peptides which are fragments of the amino acid sequences shown in SEQ ID NO: 1, SEQ ID NO: 2 and SEQ ID NO: 3, respectively SEQ ID NO: 7, SEQ ID NO: 8 and SEQ ID NO: 9 were tested for their ACE inhibiting activity.
In the case of FYGPIPNS [SEQ ID NO: 4], the “ACE inhibiting activity (in words)” value is reported as “good ACE inhibitors”.
For NCCCC[C@H](NC(=O)[C@@H]1CCCN1C(=O)[C@@H](N)CCC(=O)O)C(=O)O [SEQ ID NO: 9] (H-Glu-Pro-Lys-OH; N-terminus and C-terminus assumed), the “ACE inhibiting activity (in words)” value was “good ACE inhibitors”.
With CC(C)C[C@H](NC(=O)[C@@H](N)CO)C(=O)N1CCC[C@H]1C(=O)N[C@@H](CCC(=O)O)C(=O)O [SEQ ID NO: 2] (H-SLPE-OH; N-terminus and C-terminus assumed) the “ACE inhibiting activity (in words)” value was “strong inhibitors of ACE”.
In the case of LSEPKV [SEQ ID NO: 6], the “ACE inhibiting activity (in words)” value is reported as “good ACE inhibitors”.
With GPIPN [SEQ ID NO: 7] the “ACE inhibiting activity (in words)” value was “good ACE inhibitors”.
With NCCCC[C@H](NC(=O)[C@@H]1CCCN1C(=O)[C@H](CCC(=O)O)NC(=O)[C@@H](N)CO)C(=O)O [SEQ ID NO: 3] (H-SEPK-OH; N-terminus and C-terminus assumed) the “ACE inhibiting activity (in words)” value was “strong inhibitors of ACE”.
With CC(C)C[C@H](N)C(=O)N1CCC[C@H]1C(=O)N[C@@H](CCC(=O)O)C(=O)O [SEQ ID NO: 8] (H-Leu-Pro-Glu-OH; N-terminus and C-terminus assumed) the “ACE inhibiting activity (in words)” value was “good ACE inhibitors”.
In the case of YGPIPN [SEQ ID NO: 1], the “ACE inhibiting activity (in words)” value is reported as “strong inhibitors of ACE”.
With NSLPEN [SEQ ID NO: 5] the “ACE inhibiting activity (in words)” value was “good ACE inhibitors”.

Same assay, conditions: purified ACE enzyme (Sigma); synthetic peptides, purity >95%
FYGPIPNS [SEQ ID NO: 4] gave an IC50 of 435 µM.
NCCCC[C@H](NC(=O)[C@@H]1CCCN1C(=O)[C@@H](N)CCC(=O)O)C(=O)O [SEQ ID NO: 9] (H-Glu-Pro-Lys-OH; N-terminus and C-terminus assumed) showed an IC50 of 364 µM.
Work on CC(C)C[C@H](NC(=O)[C@@H](N)CO)C(=O)N1CCC[C@H]1C(=O)N[C@@H](CCC(=O)O)C(=O)O [SEQ ID NO: 2] (H-SLPE-OH; N-terminus and C-terminus assumed) yielded an IC50 of 329 µM.
Work on LSEPKV [SEQ ID NO: 6] yielded an IC50 of 397 µM.
Molecule GPIPN [SEQ ID NO: 7] has an IC50 of 287 µM.
With NCCCC[C@H](NC(=O)[C@@H]1CCCN1C(=O)[C@H](CCC(=O)O)NC(=O)[C@@H](N)CO)C(=O)O [SEQ ID NO: 3] (H-SEPK-OH; N-terminus and C-terminus assumed) the IC50 was 354 µM.
CC(C)C[C@H](N)C(=O)N1CCC[C@H]1C(=O)N[C@@H](CCC(=O)O)C(=O)O [SEQ ID NO: 8] (H-Leu-Pro-Glu-OH; N-terminus and C-terminus assumed) gave an IC50 of 337 µM.
Molecule YGPIPN [SEQ ID NO: 1] has an IC50 of 317 µM.
With NSLPEN [SEQ ID NO: 5] the IC50 was 369 µM.
